Activity, selectivity ratio and MIC data for one compound are collected here from ChEMBL document CHEMBL4831516, “Development of Membrane-Active Honokiol/Magnolol Amphiphiles as Potent Antibacterial Agents against Methicillin-Resistant Staphylococcus aureus (MRSA)” (J Med Chem, 2021).

Data set [1] concerns Staphylococcus aureus. The data set can be described thus: Bactericidal activity against methicillin-resistant Staphylococcus aureus clinical isolate 16 assessed as reduction in colony formation in early stage at 8 times of MIC measured within 30 mins by time-kill assay. The class given is functional, organism-based.
A short description of data set [2]: Selectivity index, HC50 for hemolytic activity in sheep RBC to MIC for antibacterial activity against Staphylococcus aureus ATCC29213. Particulars: sheep red blood cells (erythrocytes), read-out: Selectivity Index. Type of data set: toxicity.
The test system of data set [3] is Staphylococcus aureus. The data set can be described thus: Antibacterial activity against methicillin-resistant Staphylococcus aureus clinical isolate M-11 assessed as inhibition of visible growth incubated for 16 to 18 hrs by CLSI method. Type of data set: functional. Particulars: time 16-18 hrs, read-out: MIC100.
In a further data set the test system is L02. As to the kind of experiment: Cytotoxicity against human L02 cells assessed as cell viability at 128 ug/ml incubated for 24 hrs by CCK8 assay. The following applies: l02, 24 h, dose 128 µg/ml. Type of data set: cell-based. Background: Formazan colour is commonly taken as a measure of viable cells.
The subject of data set [4] is Staphylococcus aureus. As to the kind of experiment: Antibacterial activity against methicillin-resistant Staphylococcus aureus clinical isolate 16 infected in BALB/c mouse assessed as reduction in bacterial load in spleen at 25 mg/kg, sc once a day for 3 days by H and E staining based assay. The class given is functional, organism-based. Particulars: time 3.0 day.

A further data set has as its system Cell membrane. The data set can be described thus: Induction of membrane disruption in methicillin-resistant Staphylococcus aureus clinical isolate 16 assessed as increase in red fluorescence at 10 ug/ml by PI staining based confocal laser scanning microscopy. Particulars: dose 10.0 µg/ml.
Data set [5] deals with Staphylococcus aureus. The data set can be described thus: Antibiofilm activity against methicillin-resistant Staphylococcus aureus clinical isolate 16 assessed as decrease in viable bacteria in biofilm at 2 to 64 ug/ml incubated for 16 to 18 hrs by biofilm disruption assay. The following applies: dose 2-64 µg/ml, time 16-18 hrs. The class given is functional, organism-based.

In data set [6] the test system is Staphylococcus aureus. The data set can be described thus: Antibacterial activity against methicillin-resistant Staphylococcus aureus clinical isolate 16 infected in BALB/c mouse assessed as reduction in bacterial load in kidney at 25 mg/kg, sc once a day for 3 days by H and E staining based assay. The following applies: time 3.0 day. Type of data set: functional, organism-based.

The test system of the next data set is Bacillus subtilis. As to the kind of experiment: Antibacterial activity against Bacillus subtilis assessed as inhibition of visible growth incubated for 16 to 18 hrs by CLSI method. Particulars: time 16-18 hrs, read-out: MIC100. The class given is functional.
A short description of data set [7]: Toxicity in BALB/c mouse assessed as abnormalities and pathological changes in spleen at 25 mg/kg, sc once a day for 3 days by H and E staining based assay. Type of data set: organism-based. Particulars: in vivo, 72 h, time 3 day.

The source made the active and inactive calls. No cut-off for these calls is given here.

Regarding `C=CCc1ccc(OCCC[N+](C)(C)CC(=O)NCCCC)c(-c2ccc(OCCC[N+](C)(C)CC(=O)NCCCC)c(CC=C)c2)c1.[Br-].[Br-]`, the outcome with Staphylococcus aureus [1], in the data set with Staphylococcus aureus [4], in the data set with Cell membrane, in the data set on Staphylococcus aureus [5] and in the data set with Staphylococcus aureus [6] was Active. The selectivity ratio in [2] came out at 789. Further, the MIC with Staphylococcus aureus [3] and in the data set on Bacillus subtilis was 1 µg/mL in each case. Moreover, the Activity entry (in the data set with L02; in [7]) was “Non-Toxic” in each case.
